{"source": "ChEMBL document CHEMBL1153855", "about": "“Discovery of a new family of bis-8-hydroxyquinoline substituted benzylamines with pro-apoptotic activity in cancer cells: synthesis, structure-activity relationship, and action mechanism studies” (2009)", "key": {"[1]": {"test": "Cytotoxicity against human KB-3-1 cells after 72 hrs by MTS assay", "format": "functional", "details": "KB 3-1, 72 h"}, "HL-60 [2]": {"tested_on": "HL-60", "test": "Antiproliferative activity against human HL60 cells at 10 uM after 24 hrs by trypan blue exclusion assay in absence of CuCl2", "format": "functional, cell-based"}, "[3]": {"test": "Cytotoxicity against human KB3 cells", "format": "functional"}, "HCT-116": {"tested_on": "HCT-116", "test": "Cytotoxicity against human HCT116 cells", "format": "functional"}, "HCT-15": {"tested_on": "HCT-15", "test": "Cytotoxicity against human HCT15 cells expressing P-gp", "format": "functional"}, "MCF7 [4]": {"tested_on": "MCF7", "test": "Cytotoxicity against human MCF7 cells", "format": "functional"}, "MCF7 [5]": {"tested_on": "MCF7", "test": "Cytotoxicity against multidrug-resistant human MCF7 cells expressing P-gp", "format": "functional"}, "SK-OV-3": {"tested_on": "SK-OV-3", "test": "Cytotoxicity against human SKOV3 cells", "format": "functional"}, "PC-3": {"tested_on": "PC-3", "test": "Cytotoxicity against human PC3 cells", "format": "functional"}, "A549": {"tested_on": "A549", "test": "Cytotoxicity against human A549 cells", "format": "functional"}, "SF-268": {"tested_on": "SF-268", "test": "Cytotoxicity against human SF268 cells", "format": "functional"}, "HL-60 [6]": {"tested_on": "HL-60", "test": "Cytotoxicity against human HL60 cells", "format": "functional"}, "K562": {"tested_on": "K562", "test": "Cytotoxicity against human K562 cells", "format": "functional"}, "HepG2": {"tested_on": "HepG2", "test": "Cytotoxicity against human HepG2 cells", "format": "functional"}, "[7]": {"test": "Inhibition of trypsin-like activity in proteasome", "format": "subcellular"}, "[8]": {"test": "Inhibition of chymotrypsin-like activity in proteasome", "format": "subcellular"}, "HL-60 [9]": {"tested_on": "HL-60", "test": "Induction of apoptosis in human HL60 cells assessed as activation of caspase 3/7 at 0.01 uM", "format": "functional, cell-based"}, "HL-60 [10]": {"tested_on": "HL-60", "test": "Induction of apoptosis in human HL60 cells assessed as activation of caspase 3/7 at 0.1 uM", "format": "functional, cell-based"}, "HL-60 [11]": {"tested_on": "HL-60", "test": "Induction of apoptosis in human HL60 cells assessed as activation of caspase 3/7 at 1 uM", "format": "functional, cell-based"}, "HL-60 [12]": {"tested_on": "HL-60", "test": "Induction of apoptosis in human HL60 cells assessed as activation of caspase 8 at 1 uM", "format": "functional, cell-based"}, "HL-60 [13]": {"tested_on": "HL-60", "test": "Induction of apoptosis in human HL60 cells assessed as activation of caspase 9 at 1 uM", "format": "functional, cell-based"}, "HL-60 [14]": {"tested_on": "HL-60", "test": "Induction of apoptosis in human HL60 cells assessed as activation of caspase 3/7", "format": "functional, cell-based"}, "HL-60 [15]": {"tested_on": "HL-60", "test": "Antiproliferative activity against human HL60 cells at 10 uM after 24 hrs by trypan blue exclusion assay in presence of CuCl2", "format": "functional, cell-based"}, "HL-60 [16]": {"tested_on": "HL-60", "test": "Induction of apoptosis in human HL60 cells assessed as PARP cleavage at 10 uM after 24 hrs by Western blot", "format": "functional, cell-based"}, "Ovis aries [17]": {"species": "Ovis aries", "test": "Inhibition of lamb brain tubulin assembly at 37 deg C"}, "Ovis aries [18]": {"species": "Ovis aries", "test": "Inhibition of lamb brain microtubule disassembly at 4 deg C"}}, "note": "Activity calls are given as the source filed them. The calls are words filed in the database; no cut-off is given here."}
{"smiles": "Cc1ccc([C@H](C)N(Cc2ccc(O)c3ncccc23)Cc2ccc(O)c3ncccc23)cc1", "values": [{"measurement": "CC50", "setting": "[1]", "value": 0.041, "unit": "µM"}]}
{"smiles": "Cc1ccc([C@H](C)N(Cc2ccc(O)c3ncccc23)C(=O)OC(C)(C)C)cc1", "values": [{"measurement": "CC50", "setting": "[1]", "value": "> 1", "unit": "µM"}]}
{"smiles": "Oc1ccc(CNCc2ccccc2)c2cccnc12", "values": [{"measurement": "CC50", "setting": "[1]", "value": "> 1", "unit": "µM"}]}
{"smiles": "Oc1ccc(CN(Cc2cccc3ccccc23)Cc2ccc(O)c3ncccc23)c2cccnc12", "values": [{"measurement": "CC50", "setting": "[1]", "value": 0.005, "unit": "µM"}]}
{"smiles": "Oc1c(I)cc(Cl)c2cccnc12", "values": [{"measurement": "Activity", "setting": "HL-60 [2]", "value": "inactive"}]}
{"smiles": "Oc1ccc(CNCc2ccc(C(F)(F)F)cc2)c2cccnc12", "values": [{"measurement": "CC50", "setting": "[1]", "value": 10, "unit": "µM"}]}
{"smiles": "Oc1ccc(CN(Cc2ccccc2)Cc2ccc(O)c3ncccc23)c2cccnc12", "values": [{"measurement": "CC50", "setting": "[1]", "value": 0.015, "unit": "µM"}]}
{"smiles": "CC(C)(C)OC(=O)N(Cc1ccccc1C(F)(F)F)Cc1ccc(O)c2ncccc12", "values": [{"measurement": "CC50", "setting": "[1]", "value": 1, "unit": "µM"}]}
{"smiles": "Cc1ccc([C@H](C)NCc2ccc(O)c3ncccc23)cc1", "values": [{"measurement": "CC50", "setting": "[1]", "value": "> 1", "unit": "µM"}]}
{"smiles": "CC(=O)O[C@@]12CO[C@@H]1C[C@H](O)[C@@]1(C)C(=O)[C@H](O)C3=C(C)[C@@H](OC(=O)[C@H](O)[C@@H](NC(=O)OC(C)(C)C)c4ccccc4)C[C@@](O)([C@@H](OC(=O)c4ccccc4)[C@H]21)C3(C)C", "note": "[DOCETAXEL]", "values": [{"measurement": "CC50", "setting": "[1]", "value": 0.00025, "unit": "µM"}]}
{"smiles": "Cc1ccc(CNCc2ccc(O)c3ncccc23)cc1", "values": [{"measurement": "CC50", "setting": "[1]", "value": "> 10", "unit": "µM"}]}
{"smiles": "Cc1ccc(CN(Cc2ccc(O)c3ncccc23)Cc2ccc(O)c3ncccc23)cc1", "values": [{"measurement": "CC50", "setting": "[1]", "value": 0.0026, "unit": "µM"}, {"measurement": "CC50", "setting": "[3]", "value": 0.0085, "unit": "µM"}, {"measurement": "CC50", "setting": "HCT-116", "value": 0.0032, "unit": "µM"}, {"measurement": "CC50", "setting": "HCT-15", "value": 0.006, "unit": "µM"}, {"measurement": "CC50", "setting": "MCF7 [4]", "value": 0.0054, "unit": "µM"}, {"measurement": "CC50", "setting": "MCF7 [5]", "value": 0.0373, "unit": "µM"}, {"measurement": "CC50", "setting": "SK-OV-3", "value": 0.008, "unit": "µM"}, {"measurement": "CC50", "setting": "PC-3", "value": 0.343, "unit": "µM"}, {"measurement": "CC50", "setting": "A549", "value": 0.0043, "unit": "µM"}, {"measurement": "CC50", "setting": "SF-268", "value": 0.178, "unit": "µM"}, {"measurement": "CC50", "setting": "HL-60 [6]", "value": 0.0327, "unit": "µM"}, {"measurement": "CC50", "setting": "K562", "value": 0.0408, "unit": "µM"}, {"measurement": "CC50", "setting": "HepG2", "value": 0.0521, "unit": "µM"}, {"measurement": "Activity", "setting": "HL-60 [2]", "value": "inactive"}, {"measurement": "Activity", "setting": "[7]", "value": "inactive"}, {"measurement": "Activity", "setting": "[8]", "value": "inactive"}, {"measurement": "Activity", "setting": "HL-60 [9]", "value": "inactive"}, {"measurement": "Activity", "setting": "HL-60 [10]", "value": "Active"}, {"measurement": "Activity", "setting": "HL-60 [11]", "value": "Active"}, {"measurement": "Activity", "setting": "HL-60 [12]", "value": "inactive"}, {"measurement": "Activity", "setting": "HL-60 [13]", "value": "inactive"}, {"measurement": "Activity", "setting": "HL-60 [14]", "value": "Dose-dependent effect"}, {"measurement": "Activity", "setting": "HL-60 [15]", "value": "Active"}, {"measurement": "Activity", "setting": "HL-60 [16]", "value": "inactive"}]}
{"smiles": "CC(C)(C)OC(=O)N(Cc1ccc(C(F)(F)F)cc1)Cc1ccc(O)c2ncccc12", "values": [{"measurement": "CC50", "setting": "[1]", "value": 10, "unit": "µM"}]}
{"smiles": "Oc1ccc(CN(Cc2ccc(C(F)(F)F)cc2)Cc2ccc(O)c3ncccc23)c2cccnc12", "values": [{"measurement": "CC50", "setting": "[1]", "value": 0.0013, "unit": "µM"}, {"measurement": "CC50", "setting": "[3]", "value": 0.0015, "unit": "µM"}, {"measurement": "CC50", "setting": "HCT-116", "value": 0.001, "unit": "µM"}, {"measurement": "CC50", "setting": "HCT-15", "value": 0.0008, "unit": "µM"}, {"measurement": "CC50", "setting": "MCF7 [4]", "value": 0.0012, "unit": "µM"}, {"measurement": "CC50", "setting": "MCF7 [5]", "value": 0.0047, "unit": "µM"}, {"measurement": "CC50", "setting": "SK-OV-3", "value": 0.003, "unit": "µM"}, {"measurement": "CC50", "setting": "PC-3", "value": 0.206, "unit": "µM"}, {"measurement": "CC50", "setting": "A549", "value": 0.0009, "unit": "µM"}, {"measurement": "CC50", "setting": "SF-268", "value": 0.091, "unit": "µM"}, {"measurement": "CC50", "setting": "HL-60 [6]", "value": 0.0109, "unit": "µM"}, {"measurement": "CC50", "setting": "K562", "value": 0.0052, "unit": "µM"}, {"measurement": "CC50", "setting": "HepG2", "value": 0.0228, "unit": "µM"}, {"measurement": "Activity", "setting": "Ovis aries [17]", "value": "inactive"}, {"measurement": "Activity", "setting": "HL-60 [2]", "value": "inactive"}, {"measurement": "Activity", "setting": "[7]", "value": "inactive"}, {"measurement": "Activity", "setting": "[8]", "value": "inactive"}, {"measurement": "Activity", "setting": "HL-60 [9]", "value": "inactive"}, {"measurement": "Activity", "setting": "HL-60 [10]", "value": "Active"}, {"measurement": "Activity", "setting": "HL-60 [11]", "value": "Active"}, {"measurement": "Activity", "setting": "HL-60 [12]", "value": "inactive"}, {"measurement": "Activity", "setting": "HL-60 [13]", "value": "inactive"}, {"measurement": "Activity", "setting": "HL-60 [14]", "value": "Dose-dependent effect"}, {"measurement": "Activity", "setting": "HL-60 [15]", "value": "Active"}, {"measurement": "Activity", "setting": "Ovis aries [18]", "value": "Active"}, {"measurement": "Activity", "setting": "HL-60 [16]", "value": "inactive"}]}
{"smiles": "O=[N+]([O-])c1ccc(CN(Cc2ccc(O)c3ncccc23)Cc2ccc(O)c3ncccc23)cc1", "values": [{"measurement": "CC50", "setting": "[1]", "value": 0.042, "unit": "µM"}]}
{"smiles": "Oc1ccc(CNCc2ccccc2C(F)(F)F)c2cccnc12", "values": [{"measurement": "CC50", "setting": "[1]", "value": 0.2, "unit": "µM"}]}
{"smiles": "Oc1ccc(CN(Cc2ccccc2C(F)(F)F)Cc2ccc(O)c3ncccc23)c2cccnc12", "values": [{"measurement": "CC50", "setting": "[1]", "value": 0.123, "unit": "µM"}]}
{"smiles": "Oc1ccc(CNCc2cccc3ccccc23)c2cccnc12", "values": [{"measurement": "CC50", "setting": "[1]", "value": "> 1", "unit": "µM"}]}
{"smiles": "CC(=O)O[C@H]1C(=O)[C@@]2(C)[C@H]([C@H](OC(=O)c3ccccc3)[C@]3(O)C[C@H](OC(=O)[C@H](O)[C@@H](NC(=O)c4ccccc4)c4ccccc4)C(C)=C1C3(C)C)[C@]1(OC(C)=O)CO[C@@H]1C[C@@H]2O", "note": "[PACLITAXEL]", "values": [{"measurement": "CC50", "setting": "[3]", "value": 0.0001, "unit": "µM"}]}
